Patent US7906522B2, “2-aminoquinazoline derivatives” (Kyowa Hakko Kirin Co., Ltd, priority 2005, dated 2011)

Biological target: T1, Activated human p38α (Homo sapiens, UniProt Q16539)
T1 construct: purchased Upstate Biotechnology Inc. 14-251
Assay: p38MAP kinase inhibition test
Assay type: biochemical
Conditions: at a concentration of 1 μmol/L; substrate myelin basic protein, ATP 20 μmol/L, [γ-32P]ATP; read-out: enzyme inhibitory activity
Outline: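 Phosphorylation of myelin basic protein (20 μg/assay) by the kinase measured via [γ-32P]ATP incorporation at 20 μmol/L ATP, pH 7.2 MOPS buffer, 30° C. for 15 min. Labelled substrate bound to P81 paper, washed, and quantified by scintillation counting; compounds added in DMSO.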

T1 sequence (Q16539 whole entry): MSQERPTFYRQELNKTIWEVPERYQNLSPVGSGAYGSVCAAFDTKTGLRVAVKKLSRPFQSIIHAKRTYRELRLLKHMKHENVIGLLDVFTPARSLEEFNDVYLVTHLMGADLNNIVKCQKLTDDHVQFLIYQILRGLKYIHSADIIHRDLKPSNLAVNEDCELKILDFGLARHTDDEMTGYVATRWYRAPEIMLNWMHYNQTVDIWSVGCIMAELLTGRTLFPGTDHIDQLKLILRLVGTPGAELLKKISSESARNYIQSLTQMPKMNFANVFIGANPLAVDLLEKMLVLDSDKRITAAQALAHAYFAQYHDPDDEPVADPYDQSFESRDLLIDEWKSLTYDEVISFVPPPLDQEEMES

Inhibition at 1 µM, ≥ 50%:
CCCC(CCC)Nc1ncc2cc(-c3ccccc3C)c(O)cc2n1 [Compound 174, 7-Hydroxy-6-(2-methylphenyl)-2-(4-heptylamino)quinazoline]
COc1cc2nc(N[C@@H](C)CO)ncc2cc1-c1ccccc1C [Compound 165, (S)-2-(1-Hydroxy-2-propylamino)-7-methoxy-6-(2-methylphenyl)quinazoline]
Cc1ccc(-n2nc(C(C)(C)C)cc2C(=O)Nc2cccc(-c3cc4cnc(NC(C)C)nc4cc3O)c2)cc1 [Compound 359, 6-{3-[5-tert-Butyl-2-(4-methylphenyl)-2H-pyrazol-3-ylcarbonylamino]phenyl}-7-hydroxy-2-(isopropylamino)quinazoline]
CC(C)Nc1ncc2cc(-c3cccc(NC(=O)C(C)(C)C)c3)c(O)cc2n1 [Compound 298, 6-[3-(tert-Butylcarbonylamino)phenyl]-7-hydroxy-2-(isopropylamino)quinazoline]
CC(C)Nc1ncc2cc(-c3ccccc3Cl)c(OCCC(=O)O)cc2n1 [Compound 30, 7-(2-Carboxyethyloxy)-6-(2-chlorophenyl)-2-isopropylaminoquinazoline]
COc1cc2nc(NC(C)C)ncc2cc1-c1cccc(NC(=O)C2CCC2)c1 [Compound 222, 6-[3-(Cyclobutylcarbonylamino)phenyl]-2-isopropylamino-7-methoxyquinazoline]
CC(=O)Nc1cccc(-c2cc3cnc(NC(C)C)nc3cc2C)c1 [Compound 277, 6-[3-(Acetylamino)phenyl]-2-isopropylamino-7-methylquinazoline]
CC(C)Nc1ncc2cc(C(=O)c3cccc(F)c3)c(O)cc2n1 [Compound 132, 6-(3-Fluorobenzoyl)-7-hydroxy-2-(isopropylamino)quinazoline]
COc1c(-c2ccccc2Cl)cc2cnc(NC(C)C)nc2c1/C=C/C(=O)O [Compound 74, 8-[(E)-2-carboxyethenyl]-6-(2-chlorophenyl)-7-methoxy-2-(isopropylamino)quinazoline]
COc1cc2nc(NC3CCOCC3)ncc2cc1-c1ccccc1Cl [Compound 11, 6-(2-Chlorophenyl)-7-methoxy-2-(4-tetrahydropyranylamino)quinazoline]
CC(C)Nc1ncc2cc(-c3ccccc3Cl)c(O)c(-c3ccccn3)c2n1 [Compound 87, 6-(2-Chlorophenyl)-2-isopropylamino-7-hydroxy-8-(2-pyridyl)quinazoline]
CC(C)Nc1ncc2cc(-c3ccccc3Cl)c(O)c(-c3cccc(C(=O)O)c3)c2n1 [Compound 94, 8-(3-Carboxyphenyl)-6-(2-chlorophenyl)-7-hydroxy-2-(isopropylamino)quinazoline]
COCOc1cc2nc(NC(C)C)ncc2cc1-c1ccccc1Cl [Compound 26, 6-(2-Chlorophenyl)-2-isopropylamino-7-methoxymethyloxyquinazoline]
CC(=O)Nc1cccc(-c2ccc3nc(NC4CCN(S(C)(=O)=O)CC4)ncc3c2)c1 [Compound 274, 6-[3-(Acetylamino)phenyl]-2-[1-(methylsulfonyl)piperidin-4-ylamino]quinazoline]
CON=Cc1ccccc1-c1cc2cnc(NC(C)C)nc2cc1OC [Compound 59, 2-Isopropylamino-7-methoxy-6-[2-(methoxyimino)phenyl]quinazoline]
Cc1cc2nc(NC(C)C)ncc2cc1-c1cccc(NC(=O)c2ccnc(N3CCOCC3)c2)c1 [Compound 279, 2-Isopropylamino-7-methyl-6-{3-[(2-morpholinopyridin-4-yl)carbonylamino]phenyl}quinazoline]
COc1c(-c2ccccc2Cl)cc2cnc(NC(C)C)nc2c1C(=O)N1CCOCC1 [Compound 66, 6-(2-Chlorophenyl)-2-isopropylamino-8-(morpholinocarbonyl)-7-methoxyquinazoline]
CC(C)Nc1ncc2cc(-c3cccc(NC(=O)c4ccnc(N5CCOCC5)c4)c3)ccc2n1 [Compound 257, 2-Isopropylamino-6-{3-[(2-morpholinopyridin-4-yl)carbonylamino]phenyl}quinazoline]
COc1cc2nc(NC(C)C)ncc2cc1-c1ccccc1C(=O)O [Compound 185, 6-(2-Carboxyphenyl)-2-isopropylamino-7-methoxyquinazoline]
COc1cc2nc(NC(C)C)ncc2cc1-c1cc(N)ccc1CO [Compound 224, 6-[5-Amino-2-(hydroxymethyl)phenyl]-2-isopropylamino-7-methoxyquinazoline]
CC(C)Nc1ncc2cc(-c3ccccc3Cl)c(O)c(-c3ccc(C(=O)O)cc3)c2n1 [Compound 92, 8-(4-Carboxyphenyl)-6-(2-chlorophenyl)-7-hydroxy-2-(isopropylamino)quinazoline]
COc1cc2nc(NC(C)C)ncc2cc1-c1ccccc1F [Compound 190, 6-(2-Fluorophenyl)-2-isopropylamino-7-methoxyquinazoline]
COc1cc2nc(NC3CCN(C(N)=O)CC3)ncc2cc1-c1ccccc1Cl [Compound 15, 2-(1-Carbamoylpiperidin-4-ylamino)-6-(2-chlorophenyl)-7-methoxyquinazoline]
CC(C)Nc1ncc2cc(C(=O)c3cccc(O)c3)c(O)cc2n1 [Compound 123, 7-Hydroxy-6-(3-hydroxybenzoyl)-2-(isopropylamino)quinazoline]
COc1cc2nc(NC3CCN(S(C)(=O)=O)CC3)ncc2cc1-c1ccccc1C(=O)O [Compound 242, 6-(2-Carboxyphenyl)-7-methoxy-2-[1-(methylsulfonyl)piperidin-4-ylamino]quinazoline]
CC(C)Nc1ncc2cc(-c3ccccc3Cl)c(OCc3ccc(C(=O)O)cc3)cc2n1 [Compound 28, 7-(4-Carboxyphenylmethyloxy)-6-(2-chlorophenyl)-2-isopropylaminoquinazoline]
CC[C@H](C)Nc1ncc2cc(-c3ccccc3Cl)c(OC)cc2n1 [Compound 155, (S)-2-(sec-Butylamino)-6-(2-chlorophenyl)-7-methoxyquinazoline]
COc1cc2nc(NC3CCN(S(C)(=O)=O)CC3)ncc2cc1-c1cccc(NC(C)=O)c1 [Compound 238, 6-(3-Acetylaminophenyl)-7-methoxy-2-[1-(methylsulfonyl)piperidin-4-ylamino]quinazoline]
COc1cc2nc(N[C@H](C)c3ccccc3)ncc2cc1-c1ccccc1Cl [Compound 8, (R)-6-(2-Chlorophenyl)-7-methoxy-2-[(1-phenylethyl)amino]quinazoline]
Cc1cccc(C)c1Nc1ncc2cc(-c3cccc(NC(=O)c4cccc(N(C)C)c4)c3)c(O)cc2n1 [Compound 314, 6-{3-[(3-Dimethylaminophenyl)carbonylamino]phenyl}-2-(2,6-dimethylanilino)-7-hydroxyquinazoline]
C=Cc1c(OC)c(-c2ccccc2Cl)cc2cnc(NC(C)C)nc12 [Compound 76, 6-(2-Chlorophenyl)-2-isopropylamino-7-methoxy-8-vinylquinazoline]
